For one series, the system named is CYP3A4&5. As to the kind of experiment: CYP inhibition, human liver microsomes. The class given is in vitro ADME. Particulars: probe testosterone, substrate testosterone, read-out: CYP3A4&5 testosterone Inh %.
The target of a further series is T1, CYP2C19 (Homo sapiens, UniProt P33261).
T1 construct: tissue Eurofins protocol ITEMG232; host or cells: human liver microsomes
As to the kind of experiment: CYP inhibition, human liver microsomes. To be noted: probe omeprazole, substrate omeprazole, read-out: CYP2C19 Inh %. The series is classed as in vitro ADME. For orientation: Microsomes from liver hold many membrane-bound enzymes, among them those of drug oxidation.

The target of the next series is T2, CYP2C9 (Homo sapiens, UniProt P11712).
T2 construct: tissue Eurofins protocol ITEMG232; host or cells: human liver microsomes
T2 sequence (P11712 whole entry): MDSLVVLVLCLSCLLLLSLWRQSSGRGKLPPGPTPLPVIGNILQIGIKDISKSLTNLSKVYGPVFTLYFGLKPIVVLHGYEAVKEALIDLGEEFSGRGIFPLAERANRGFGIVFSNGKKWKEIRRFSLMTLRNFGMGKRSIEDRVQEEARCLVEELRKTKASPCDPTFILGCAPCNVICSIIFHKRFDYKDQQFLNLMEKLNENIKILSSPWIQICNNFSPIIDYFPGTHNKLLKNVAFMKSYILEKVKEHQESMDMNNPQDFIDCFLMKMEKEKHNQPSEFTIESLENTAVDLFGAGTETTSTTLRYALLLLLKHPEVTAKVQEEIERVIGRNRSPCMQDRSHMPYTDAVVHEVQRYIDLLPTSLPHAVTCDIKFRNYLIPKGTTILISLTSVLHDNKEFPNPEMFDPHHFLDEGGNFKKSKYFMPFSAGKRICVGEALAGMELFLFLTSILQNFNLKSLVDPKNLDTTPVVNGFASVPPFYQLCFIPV
As to the kind of experiment: CYP inhibition, human liver microsomes. The series is classed as in vitro ADME. Particulars: for inhibition at 10 µM: probe diclofenac, substrate diclofenac, human liver microsomes, read-out: CYP2C9 Inh %.

Another series concerns the target T3, CYP2B6 (Homo sapiens, UniProt P20813).
T3 construct: tissue Eurofins protocol ITEMG232; host or cells: human liver microsomes
T3 sequence (P20813 1-491): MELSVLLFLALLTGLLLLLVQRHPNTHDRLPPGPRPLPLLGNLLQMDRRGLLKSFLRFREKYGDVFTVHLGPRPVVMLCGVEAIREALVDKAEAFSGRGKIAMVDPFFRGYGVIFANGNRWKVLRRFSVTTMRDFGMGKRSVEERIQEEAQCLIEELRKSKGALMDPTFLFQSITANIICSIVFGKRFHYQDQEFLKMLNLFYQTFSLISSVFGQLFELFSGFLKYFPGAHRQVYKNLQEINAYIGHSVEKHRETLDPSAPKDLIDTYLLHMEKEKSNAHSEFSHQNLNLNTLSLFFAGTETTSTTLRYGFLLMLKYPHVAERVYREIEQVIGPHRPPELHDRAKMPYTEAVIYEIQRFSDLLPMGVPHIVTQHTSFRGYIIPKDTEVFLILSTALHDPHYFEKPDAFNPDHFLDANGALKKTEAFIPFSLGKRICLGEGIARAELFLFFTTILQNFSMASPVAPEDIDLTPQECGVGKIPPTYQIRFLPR
The series can be described thus: CYP inhibition, human liver microsomes. Particulars: probe bupropion, substrate bupropion, read-out: CYP2B6 Inh %. The series is classed as in vitro ADME.

The next series has as its target T4, CYP2D6 (Homo sapiens, UniProt P10635).
T4 construct: tissue Eurofins protocol ITEMG232; host or cells: human liver microsomes
The series can be described thus: CYP inhibition, human liver microsomes. The series is classed as in vitro ADME. To be noted: probe dextromethorphan, substrate dextromethorphan, read-out: CYP2D6 Inh %.

The target of the next series is T5, CYP2C8 (Homo sapiens, UniProt P10632).
T5 construct: tissue Eurofins protocol ITEMG232; host or cells: human liver microsomes
T5 sequence (P10632 1-490): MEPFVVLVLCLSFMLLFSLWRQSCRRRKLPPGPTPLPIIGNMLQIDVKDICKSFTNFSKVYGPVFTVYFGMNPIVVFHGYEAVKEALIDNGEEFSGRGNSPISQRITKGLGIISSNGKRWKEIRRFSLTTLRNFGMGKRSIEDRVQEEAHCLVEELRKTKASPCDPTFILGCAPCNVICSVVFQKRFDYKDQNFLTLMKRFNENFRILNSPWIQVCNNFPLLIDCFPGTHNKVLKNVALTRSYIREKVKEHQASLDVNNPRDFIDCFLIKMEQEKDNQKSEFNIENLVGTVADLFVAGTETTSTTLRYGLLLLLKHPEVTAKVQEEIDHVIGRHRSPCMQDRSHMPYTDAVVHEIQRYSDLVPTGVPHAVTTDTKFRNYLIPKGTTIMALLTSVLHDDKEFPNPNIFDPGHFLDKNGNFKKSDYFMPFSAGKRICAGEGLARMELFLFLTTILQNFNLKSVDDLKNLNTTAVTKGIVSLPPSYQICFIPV
As to the kind of experiment: CYP inhibition, human liver microsomes. The class given is in vitro ADME. Particulars: probe paclitaxel and amodiaquine, substrates paclitaxel and amodiaquine, read-out: CYP2C8 Inh %.

Series [1] concerns the target T6, human recombinant AT2 receptor (Homo sapiens, UniProt P50052).
T6 construct: Eurofins protocol ITEM26
T6 sequence (P50052 1-363): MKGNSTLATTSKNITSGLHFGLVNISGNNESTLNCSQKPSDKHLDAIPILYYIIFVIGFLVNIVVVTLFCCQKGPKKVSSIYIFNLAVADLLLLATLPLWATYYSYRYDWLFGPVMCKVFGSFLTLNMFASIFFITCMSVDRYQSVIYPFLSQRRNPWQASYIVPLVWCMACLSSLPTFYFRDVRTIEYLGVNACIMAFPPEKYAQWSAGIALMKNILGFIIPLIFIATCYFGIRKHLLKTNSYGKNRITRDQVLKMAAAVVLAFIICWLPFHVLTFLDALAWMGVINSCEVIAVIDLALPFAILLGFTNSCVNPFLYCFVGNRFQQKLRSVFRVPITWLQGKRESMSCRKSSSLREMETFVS
As to the kind of experiment: Binding to AT2 receptor, radiometric scintillation assay (Eurofins). To be noted: for IC50: read-out: AT2 GraFit IC50; for Ki: seven-point dose-response curve, read-out: AT2R Ki.

Series [2] can be described thus: Metabolic stability in pooled human liver microsomes. The class given is in vitro ADME. To be noted: for half-life at 1 μM: human, pooled human liver microsomes, human liver microsomes 0.5 mg/mL, test compound 1 μM, 37° C.
Another series deals with T7, CYP1A (Homo sapiens, UniProt P05177).
T7 construct: tissue Eurofins protocol ITEMG232; host or cells: human liver microsomes
T7 sequence (P05177 2-516 limits assumed): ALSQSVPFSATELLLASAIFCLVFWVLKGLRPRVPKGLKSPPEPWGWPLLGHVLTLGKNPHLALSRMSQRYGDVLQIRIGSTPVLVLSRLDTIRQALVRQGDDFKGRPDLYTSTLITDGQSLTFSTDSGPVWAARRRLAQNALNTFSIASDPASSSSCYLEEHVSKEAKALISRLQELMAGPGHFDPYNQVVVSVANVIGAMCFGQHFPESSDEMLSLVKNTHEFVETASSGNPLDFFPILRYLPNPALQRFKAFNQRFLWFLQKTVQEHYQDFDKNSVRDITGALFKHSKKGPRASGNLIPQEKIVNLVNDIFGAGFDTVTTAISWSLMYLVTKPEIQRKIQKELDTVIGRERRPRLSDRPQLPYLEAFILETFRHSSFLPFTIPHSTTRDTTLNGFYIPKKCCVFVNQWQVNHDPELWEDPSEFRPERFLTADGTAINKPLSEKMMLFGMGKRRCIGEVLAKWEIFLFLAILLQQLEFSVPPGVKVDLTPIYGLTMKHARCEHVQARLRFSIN
As to the kind of experiment: CYP inhibition, human liver microsomes. The series is classed as in vitro ADME. Particulars: probe phenacetin, substrate phenacetin, read-out: CYP1A Inh %.

Series [3] concerns the target T8, human recombinant AT1 receptor (Homo sapiens, UniProt P30556).
T8 construct: Eurofins protocol ITEM24
T8 sequence (P30556 1-359): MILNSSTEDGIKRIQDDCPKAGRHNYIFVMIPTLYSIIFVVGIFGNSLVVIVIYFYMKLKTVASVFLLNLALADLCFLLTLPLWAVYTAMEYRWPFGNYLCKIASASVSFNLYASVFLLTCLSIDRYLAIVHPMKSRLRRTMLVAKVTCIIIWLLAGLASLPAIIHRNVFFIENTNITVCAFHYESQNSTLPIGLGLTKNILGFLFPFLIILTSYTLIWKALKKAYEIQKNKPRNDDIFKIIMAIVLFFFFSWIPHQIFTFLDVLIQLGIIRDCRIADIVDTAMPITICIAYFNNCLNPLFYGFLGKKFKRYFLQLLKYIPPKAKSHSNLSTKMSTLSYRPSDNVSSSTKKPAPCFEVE
As to the kind of experiment: Binding to AT1 receptor, radiometric scintillation assay (Eurofins). To be noted: single run; 1 and 10 μM; ligand 125I(sar1,Ile8)-AT-II.

A further series addresses T9, CYP3A4 (Homo sapiens, UniProt P08684).
T9 construct: tissue Eurofins protocol ITEMG232; host or cells: human liver microsomes
The series can be described thus: CYP inhibition, human liver microsomes. The series is classed as in vitro ADME. Particulars: for inhibition at 10 µM: probe midazolam, substrate midazolam, human liver microsomes, read-out: CYP3A4 midazolam Inh %.

[4] abbreviates: single run, 1, 10, 100 and 1000 nM, ligand 125I CGP 42112A.
The mark [5] stands for this setting: with 1 mM NADPH, read-out: T1/2, + NaDPH.
[6] abbreviates: without NADPH, read-out: T1/2, no NaDPH.
[7] abbreviates: found during development, background statement.

Structures are written as SMILES. “And” between values parts separate entries of the source, which are not always exact repeats. Identical values can stand only once. Like-named read-outs stand apart in the source and are kept apart here.

T1 sequence (P33261 whole entry): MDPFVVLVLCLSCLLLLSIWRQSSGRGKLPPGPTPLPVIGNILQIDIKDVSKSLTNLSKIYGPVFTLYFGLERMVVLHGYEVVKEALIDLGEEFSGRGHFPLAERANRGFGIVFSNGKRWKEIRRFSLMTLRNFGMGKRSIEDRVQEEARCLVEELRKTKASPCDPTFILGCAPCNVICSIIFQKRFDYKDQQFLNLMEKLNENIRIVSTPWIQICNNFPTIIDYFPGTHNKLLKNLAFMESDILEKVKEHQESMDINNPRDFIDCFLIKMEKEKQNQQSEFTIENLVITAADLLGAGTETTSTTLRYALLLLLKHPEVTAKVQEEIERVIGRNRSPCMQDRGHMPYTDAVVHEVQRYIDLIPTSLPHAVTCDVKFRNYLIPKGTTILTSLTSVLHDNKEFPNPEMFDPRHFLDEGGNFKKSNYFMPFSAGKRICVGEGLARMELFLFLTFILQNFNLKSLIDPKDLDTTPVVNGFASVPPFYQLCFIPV
T4 sequence (P10635 whole entry): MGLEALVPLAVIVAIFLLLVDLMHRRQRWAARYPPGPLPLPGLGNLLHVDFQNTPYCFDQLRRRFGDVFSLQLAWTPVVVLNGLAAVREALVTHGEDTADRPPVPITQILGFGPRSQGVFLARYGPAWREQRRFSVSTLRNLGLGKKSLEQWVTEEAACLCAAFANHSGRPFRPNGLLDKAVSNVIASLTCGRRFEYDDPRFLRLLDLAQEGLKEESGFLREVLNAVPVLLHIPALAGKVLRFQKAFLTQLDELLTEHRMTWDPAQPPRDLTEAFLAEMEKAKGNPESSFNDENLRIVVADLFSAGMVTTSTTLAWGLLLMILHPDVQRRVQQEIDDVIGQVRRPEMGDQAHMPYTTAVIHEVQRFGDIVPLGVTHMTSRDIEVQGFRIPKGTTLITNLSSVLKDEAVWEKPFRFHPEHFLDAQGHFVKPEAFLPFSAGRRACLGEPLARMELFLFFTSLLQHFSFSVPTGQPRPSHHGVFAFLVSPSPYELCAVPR
T9 sequence (P08684 whole entry): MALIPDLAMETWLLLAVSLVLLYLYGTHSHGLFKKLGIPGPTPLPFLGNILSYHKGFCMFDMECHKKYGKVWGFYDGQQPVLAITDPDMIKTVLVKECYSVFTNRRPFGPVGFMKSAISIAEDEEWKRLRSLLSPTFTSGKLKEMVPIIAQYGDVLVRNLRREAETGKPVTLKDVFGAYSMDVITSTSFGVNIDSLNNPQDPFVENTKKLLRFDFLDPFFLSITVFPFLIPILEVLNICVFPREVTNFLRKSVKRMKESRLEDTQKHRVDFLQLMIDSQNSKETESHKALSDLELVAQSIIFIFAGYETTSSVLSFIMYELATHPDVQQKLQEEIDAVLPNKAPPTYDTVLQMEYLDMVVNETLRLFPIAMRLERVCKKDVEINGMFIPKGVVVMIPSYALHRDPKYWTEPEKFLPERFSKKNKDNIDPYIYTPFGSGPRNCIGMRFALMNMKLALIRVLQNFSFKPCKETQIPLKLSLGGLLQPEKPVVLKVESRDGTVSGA

By IC50 is commonly meant the concentration needed to halve the response being measured. One may read the Ki as a measure of affinity in units of concentration, obtained from inhibition or displacement. Take `CC(C)Cc1cc(-c2ccc(Cn3ccnc3C(C)(C)C)cc2)c(S(=O)(=O)NC(=O)NCc2ccco2)s1` [Example 1, Furan-2-ylmethyl-3-[[5-isobutyl-3-[4-[(2-tert-butyl-imidazol-1-yl)methyl]phenyl]-2-thienyl]sulfonyl]urea]: the inhibition at 10 µM in the series with CYP3A4&5 is 11.8%; at CYP2C19, 49.1%; on CYP2C9, 58.4%; at CYP2B6, 96.5%; on CYP2D6 it was 13.8%; at CYP2C8, 77.8%. Besides, the inhibition at 10 µM is -13.2% at CYP1A and 11.6% on CYP3A4. Also, the concentration for half-maximal inhibition (IC50) in [1] (mean average of the runs) is 4.2 nM; in series [1] (setting [4]) it was 2.6 nM and 5.7 nM; in [3] it was 3000 nM. The inhibitory constant (Ki) in series [1] (ligand 125I CGP 42112A) was determined as 2.8 nM. In addition, the half-life at 1 μM in series [2] (setting [5]) and in series [2] (setting [6]) was greater than 1 h throughout.
For `CC(C)Cc1cc(-c2ccc(Cn3ccnc3C(C)(C)C)cc2)c(S(=O)(=O)NC(=O)NCc2cccs2)s1` [Example 2], the inhibition at 10 µM in the series on CYP3A4&5 was determined as 18%; at CYP2C19, 56.8%; on CYP2C9, 64.6%; on CYP2B6 it was 9.6%; at CYP2D6, 33.6%; on CYP2C8, 81.8%. In addition, the inhibition at 10 µM at CYP1A was -1.8%; at CYP3A4, 40.9%. For the same compound, the results for the IC50 in series [1] (mean average of the runs), in series [1] (setting [4]) and in [3] were 2.5 nM, 2.5 nM and 2000 nM, respectively. Further, the Ki in [1] (ligand 125I CGP 42112A) turned out to be 1.25 nM. Besides, the half-life at 1 μM in series [2] (setting [5]) is 0.533 h; in series [2] (setting [6]) it was greater than 1 h.
As to `COCCNC(=O)NS(=O)(=O)c1sc(CC(C)C)cc1-c1ccc(Cn2ccnc2C(C)(C)C)cc1` [Example 3], the half-life at 1 μM in [2] (setting [5]) and in series [2] (setting [6]) was greater than 1 h each time.
Consider `CC(C)Cc1cc(-c2ccc(Cn3ccnc3C(C)(C)C)cc2)c(S(=O)(=O)NC(=O)NCc2ccccn2)s1` [Example 4], for which the inhibition at 10 µM with CYP3A4&5 came to 16.7%; on CYP2C19 it was 44.4%; at CYP2C9 it was 43.5%; at CYP2B6, 13.8%; on CYP2D6, 24.3%; on CYP2C8, 79.3%. Further, the inhibition at 10 µM was -0.5% at CYP1A and 33.7% at CYP3A4. The IC50 in series [1] (mean average of the runs) is 2.9 nM; in series [1] (setting [4]), 3.7 nM and 2.1 nM; in series [3], 3000 nM. In [1] (ligand 125I CGP 42112A), the Ki amounted to 1.9 nM. Moreover, the half-life at 1 μM in series [2] (setting [5]) and in series [2] (setting [6]) was greater than 1 h throughout.
As to `CC(C)Cc1cc(-c2ccc(Cn3ccnc3C(C)(C)C)c(F)c2)c(S(=O)(=O)NC(=O)NCc2ccccn2)s1` [Example 5, 1-[[3-[4-[(2-Tert-butylimidazol-1-yl)methyl]-3-fluoro-phenyl]-5-isobutyl-2-thienyl]sulfonyl]-3-(2-pyridylmethyl)urea], the inhibition at 10 µM with CYP3A4&5 is 18.9%; on CYP2C19, 52.1%; on CYP2C9, 62.1%; on CYP2B6, 24.9%; on CYP2D6, 23.2%; on CYP2C8 it was 78.3%. For the same compound, the inhibition at 10 µM turned out to be 34.1% at CYP1A and 43% at CYP3A4. Moreover, the IC50 in series [1] (setting [4]) was 0.44 nM; in series [3] it was 1800 nM. The half-life at 1 μM in series [2] (setting [5]) and in series [2] (setting [6]) was greater than 1 h in each case.
Consider `CCNC(=O)NS(=O)(=O)c1sc(CC(C)C)cc1-c1ccc(Cn2ccnc2C(C)(C)C)c(F)c1` [Example 6, 1-[[3-[4-[(2-Tert-butylimidazol-1-yl)methyl]-3-fluoro-phenyl]-5-isobutyl-2-thienyl]sulfonyl]-3-ethyl-urea], for which the inhibition at 10 µM was 10.8% with CYP3A4&5; 35.1% at CYP2C19; 39.7% at CYP2C9; 27% at CYP2B6; 18.8% on CYP2D6; 77.6% on CYP2C8. For the same compound, the inhibition at 10 µM at CYP1A turned out to be 15.8%; on CYP3A4, 23.8%. Also, the half-life at 1 μM in series [2] (setting [5]) and in series [2] (setting [6]) was greater than 1 h in each case.
With `CCCCOC(=O)NS(=O)(=O)c1sc(CC(C)C)cc1-c1ccc(Cn2ccnc2)cc1` [Example C21, N-butyloxycarbonyl-3-(4-imidazol-1-ylmethylphenyl)-5-isobutylthiophene-2-sulfon-amide, reference compound], the “inhibition of CYP 2C9 (in words)” value against CYP2C9 (setting [7]) is listed as “potent inhibitor”. In addition, the “metabolic hydrolysis (in words)” value in series [2] (setting [7]) is “rapidly hydrolysed to an inactive sulfonamide metabolite”. In addition, the “inhibition of CYP 3A4 (in words)” value on CYP3A4 (setting [7]) is recorded as “potent inhibitor”.
